According to publication PMC7006784, “The combination of salvianolic acid A with latamoxef completely protects mice against lethal pneumonia caused by methicillin-resistant Staphylococcus aureus” (Emerging Microbes & Infections, 2020):
Marks after values point to notes of the source that are not given here.

Columns and labels:
[1] = test system: T1, A104L-SrtA; test: Fluorescence quenching assay, A104L-SrtA; format: binding, S. aureus; settings: fluorescence spectroscopy quenching
T1 construct: The gene encoding SrtA (lacking the N-terminal transmembrane domain (N1–59)); 6xHis (N); made in house
Method: (§1) The fluorescence quenching assay was performed as previously described. Briefly, purified SrtA and mutant protein were diluted to 500 ng/ml with PBS. A total of 2.5 ml diluted protein solution was mixed with Sal A at different concentrations ranging from 0 to 4.5 μg. After incubation for 10 min, the fluorescence spectra of the mixed solutions were measured using a fluorescence spectrophotometer (RF5301, Japan). For the fluorescence measurement, the excitation and emission slits were set at 5.0 nm, the excitation wavelength was set at 280 nm, and fluorescence emission spectra in the range of 290–500 nm were scanned; the fluorescence intensity at 340 nm was recorded. All assays were performed in triplicate.

[2] = test system: S. aureus protein A (SpA); test: SpA-related fluorescence analysis (confocal microscopy); format: cell-based; settings: 256 μg/ml, FITC-labelled IgG
Method: An overnight culture of S. aureus was diluted 1:100 in BHI broth with or without Sal A and grown until the OD600 reached 1.0. After centrifugation at 2,500 × g for 10 min, the bacterial pellets were fixed with 4% formaldehyde solution for 30 min. After washing three times with PBS, 5% BSA was added for blocking, and the bacteria were incubated for 20 min. Then, the bacteria were rinsed with PBS and resuspended in PBS containing FITC-labelled rabbit anti-goat-IgG (Sigma) at a dilution of 1:50 and incubated at 37°C for 3 h. After washing three times with PBS, the bacteria were placed onto poly-lysine-coated glass slides, and the SpA on the cell surface was visualized by confocal microscopy (Zeiss, LSM 880).

[3] = test system: A549 cells; test: Invasion assay (internalization of S. aureus into A549 cells); format: cell-based; settings: CFU count
Method: The assay of the internalization of S. aureus into A549 cells was performed as described. Briefly, 3 × 10^5 A549 cells were plated in each well of a 24-well plate and incubated at 37°C in 5% CO2 for 12 h. S. aureus was grown in BHI broth with or without Sal A to an OD600 of 1.0. Then, the bacterial suspension was added to the plate and incubated for 1 h. The bacterial suspension was discarded, and the A549 cells were washed three times with PBS and treated with DMEM containing 300 μg/ml gentamycin. After incubation for 2 h, the plates were washed three times, and the cells were lysed with sterile distilled water. The lysates were diluted 100-fold in PBS and spread onto BHI agar plates in triplicate. The plates were incubated at 37°C for 12 h, and the number of colony-forming unit (CFU) was determined by manual counting.

[4] = test system: SrtA; test: Western blot of SrtA expression; format: cell-based, S. aureus; settings: 256, 128, 64, or 32 μg/ml, Western blot with grayscale analysis
Method: The dissolved cell wall proteins and cytoplasmic membranes were obtained according to a previously reported method. Equal volumes of protein extract were separated using a 12% SDS-PAGE gel, and the proteins were transferred onto polyvinylidine difluoride membranes (Wako Pure Chemical Industries, Ltd., Osaka, Japan). After blotting, the membrane was blocked with 5% BSA for 2 h and probed with primary antibodies against S. aureus SrtA overnight at 4°C. Next, the membrane was washed and incubated with HRP-labelled goat anti-rabbit IgG. After washing again with PBS, the immunoreactive bands were visualized by an ECL Western blot detection system (GE Healthcare, UK). The primary antibodies against S. aureus SrtA were produced in-house by our team members. The secondary HRP-labelled goat anti-rabbit IgG antibody was obtained from Proteintech (Chicago, USA).

[5] = test system: S. aureus USA300; test: Pneumonia model, bacterial load and histopathology of the lungs; format: in vivo, C57BL/6J mice; settings: mice, 1 × 10^9 CFU i.n., 24 h
Method: The animal experiments were performed using 6- to 8-week-old female C57BL/6J mice obtained from the Experimental Animal Center of Jilin University and conducted according to the guidelines of the Animal Care and Use Committee of Jilin University. The mouse S. aureus pneumonia model was generated as described previously. Briefly, the mice were anaesthetized with ether and inoculated with 30 μl bacterial resuspension via the left nare. The mice were then held upright to allow the bacteria to be inhaled into the lungs. For the survival assessment, groups of 10 mice were challenged with 2 × 10^9 CFU S. aureus. One hour after intranasal inoculation, the mice were subcutaneously injected with 100 mg/kg of Sal A, 75 mg/kg of latamoxef or 100 mg/kg of Sal A plus 75 mg/kg of latamoxef at 12 h intervals, and survival was assessed for 96 h. For the bacterial load, histopathological, and bronchoalveolar lavage fluid (BALF) experiments, mice were inoculated with 1 × 10^9 CFU S. aureus. The mice were then given a subcutaneous injection of 100 mg/kg Sal A, 75 mg/kg latamoxef or a combination of 100 mg/kg Sal A and 75 mg/kg every 12 h. After 24 h, the left lung of each anaesthetized mouse was aseptically excised and homogenized, and the CFU was determined by serial dilutions. The right lungs from each group of mice were excised for histopathological analysis, and the samples were fixed in 10% formalin and stained with haematoxylin and eosin (H&E).

[6] = test system: T2, WT-SrtA; test: Fluorescence quenching assay, WT-SrtA; format: binding, S. aureus
T2 construct: The gene encoding SrtA (lacking the N-terminal transmembrane domain (N1–59)); 6xHis (N); made in house
Method: as §1

[7] = target: T3, SrtA (Staphylococcus aureus, UniProt Q2FV99); test: SrtA activity assay (FRET); format: biochemical, S. aureus
T3 construct: The gene encoding SrtA (lacking the N-terminal transmembrane domain (N1–59)); made in house
T3 sequence (Q2FV99 60-206): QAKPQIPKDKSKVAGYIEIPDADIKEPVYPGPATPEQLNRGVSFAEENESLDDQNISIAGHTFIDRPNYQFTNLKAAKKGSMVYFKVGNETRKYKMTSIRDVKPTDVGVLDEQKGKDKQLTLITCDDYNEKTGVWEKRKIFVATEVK
Method: The SrtA activity assay was performed by using FRET as described previously. Briefly, a mixture of 4 μM recombinant SrtA and different concentrations of Sal A in a 300 μl reaction volume (50 mM Tris·HCl, 150 mM NaCl and 5 mM CaCl2, pH 7.5) was incubated for 1 h at 37°C. Then, 10 μM substrate peptide was added and incubated for an additional hour. Wells containing all constituents except SrtA served as blank controls. The fluorescence was measured with a microplate reader at λex = 350 nm and λem = 495 nm.

[8] = test system: S. aureus protein A (SpA); test: Flow cytometry of FITC-IgG-stained S. aureus (SpA anchoring); format: cell-based; settings: untreated WT 108.58
Method: To quantify the effect of the Sal A on the anchoring of SpA, the FITC-IgG-stained S. aureus was measured by flow cytometry. S. aureus strains were grown overnight and then were diluted 1:100 in BHI broth with or without Sal A and grown until the OD600 reached 1.0. Then, bacteria were harvested by centrifugation at 2,500 × g for 10 min. The collected pellets were washed once with PBS and were incubated in PBS solution containing 0.2% BSA (wt/vol) for 10 min. Afterward, bacteria were washed thrice and then suspended in PBS containing FITC-labelled rabbit anti-goat-IgG at a dilution of 1:50 and incubated at 37°C in the dark for 60 min. After a thorough washing, bacteria were fixed with formaldehyde (2%, vol/vol) for 10 min at room temperature. Fluorescence signal was detected on a FACSCanto flow cytometer (Becton Dickinson, USA) and analyzed using FACSDiva software.

[9] = test system: TNF-α, IL-6, IL-1β; test: Pneumonia model, cytokines in BALF (ELISA); format: in vivo, C57BL/6J mice; settings: mice, 1 × 10^9 CFU i.n.; 100 mg/kg s.c.; 24 h after infection
Method: For the determinations of the levels of TNF-α, IL-6, IL-1β, 24 h after inoculation with bacteria, the lungs of anaesthetized mice were lavaged with a tracheal cannula according to a procedure described previously. The lavage samples were centrifuged for 10 min at 500 × g and 4°C. The supernatant was collected, and the amounts of cytokines were quantified using commercial enzyme-linked immunosorbent assay (ELISA) kits (eBioscience, San Diego, CA) according to the manufacturer’s protocols. All animal experiments were replicated at least twice, with essentially identical results.

[10] = test system: adhesion of S. aureus to fibrinogen; test: Fibrinogen binding assay; format: cell-based; settings: bovine fibrinogen coated plate, crystal violet
Method: Overnight cultures of S. aureus were subcultured into fresh medium with or without Sal A and then grown until the OD600 reached 0.5. Then, 100 μl of the bacterial culture was transferred into each well of a polystyrene 96-well plate coated with 20 μg/ml bovine fibrinogen and incubated for 2 h at 37°C. The cell suspension was discarded, and the wells were rinsed twice with PBS. Then, 25% formaldehyde was added and incubated for 30 min, and the plate was washed three times and stained with crystal violet dye (12.5 g/l). The binding of S. aureus to fibrinogen was quantitated as described previously. The data are presented as the mean ± SEM from three separate experiments.

SMILES: O=C(/C=C/c1ccc(O)c(O)c1/C=C/c1ccc(O)c(O)c1)O[C@H](Cc1ccc(O)c(O)c1)C(=O)O [Sal A, (2R)-3-(3,4-Dihydroxyphenyl)-2-[(E)-3-[2-[(E)-2-(3,4-dihydroxyphenyl)ethenyl]-3,4-dihydroxyphenyl]prop-2-enoyl]oxypropanoic acid]
- KA [1]: 2.62 (1 × 10^4) l/mol
- level of green fluorescence (SpA on surface) compared with the WT group [2]: considerably reduced
- number of bacteria entering the cells compared to the control group [3]: significant reduction
- expression of SrtA [4]: did not impact the expression
- viable MRSA loads in the lungs in comparison with the control ([5]; s.c. 100 mg/kg Sal A and/or 75 mg/kg latamoxef every 12 h): significantly decreased
- pulmonary inflammation (histopathology of the lungs) ([5]; s.c. 100 mg/kg Sal A and/or 75 mg/kg latamoxef, H&E): alleviated
- KA ([6]; fluorescence quenching, WT SrtA): 58000 L/mol
- KA ([6]; fluorescence spectroscopy quenching, WT-SrtA): 5.8 (1 × 10^4) l/mol
- IC50 [7]: 11.6 µM
- mean value of fluorescence yield (Marker: All) [8]: 13.64
- levels of TNF-α, IL-6, and IL-1β in the BALF compared with the control group [9]: significantly downregulated
- adhesion of S. aureus to fibrinogen [10]: inhibited the adhesion of S. aureus to fibrinogen in a dose-dependent manner
